In ChEMBL document CHEMBL3227961, “Antileukemic activity of substituted ureidothiazoles, ureidothiadiazoles, and related compounds” (J Med Chem, 1979):
The source made the active and inactive calls. The calls are words filed in the database; no cut-off is given here.

How the values were obtained:
P388 [1] = experiment: Antitumor activity against mouse P388 cells allografted in BDF1 mouse assessed as tumor growth inhibition at 200 mg/kg administered as qd for 1 to 9 days relative to control; format: functional
P388 [2] = experiment: Antitumor activity against mouse P388 cells allografted in BDF1 mouse assessed as survival at 100 mg/kg administered as qd for 1 to 9 days; format: functional, organism-based; design: dose 100 mg/kg
P388 [3] = experiment: Antitumor activity against mouse P388 cells allografted in BDF1 mouse assessed as tumor growth inhibition at 100 mg/kg administered as qd for 1 to 9 days relative to control; format: functional
P388 [4] = experiment: Antitumor activity against mouse P388 cells allografted in BDF1 mouse assessed as tumor growth inhibition at 50 mg/kg administered as qd for 1 to 9 days relative to control; format: functional
P388 [5] = experiment: Antitumor activity against mouse P388 cells allografted in BDF1 mouse assessed as survival at 50 mg/kg administered as qd for 1 to 9 days; format: functional, organism-based; design: dose 50 mg/kg
P388 [6] = experiment: Antitumor activity against mouse P388 cells allografted in BDF1 mouse assessed as survival at 25 mg/kg administered as qd for 1 to 9 days; format: functional, organism-based; design: dose 25 mg/kg
P388 [7] = experiment: Antitumor activity against mouse P388 cells allografted in BDF1 mouse assessed as tumor growth inhibition at 25 mg/kg administered as qd for 1 to 9 days relative to control; format: functional
P388 [8] = experiment: Antitumor activity against mouse P388 cells allografted in BDF1 mouse assessed as survival at 200 mg/kg administered as qd for 1 to 9 days; format: functional, organism-based; design: dose 200 mg/kg
P388 [9] = experiment: Antitumor activity against mouse P388 cells allografted in BDF1 mouse assessed as survival at 12.5 mg/kg administered as qd for 1 to 9 days; format: functional, organism-based; design: dose 12.5 mg/kg
P388 [10] = experiment: Antitumor activity against mouse P388 cells allografted in BDF1 mouse assessed as tumor growth inhibition at 12.5 mg/kg administered as qd for 1 to 9 days relative to control; format: functional
P388 [11] = experiment: Antitumor activity against mouse P388 cells allografted in BDF1 mouse assessed as tumor growth inhibition at 400 mg/kg administered as qd for 1 to 9 days relative to control; format: functional
P388 [12] = experiment: Antitumor activity against mouse P388 cells allografted in BDF1 mouse assessed as survival at 400 mg/kg administered as qd for 1 to 9 days; format: functional, organism-based; design: dose 400 mg/kg
Mus musculus = experiment: Toxicity in mouse B16 cells allografted in BDF1 mouse at 6.25 to 50 mg/kg administered as qd for 1 to 9 days; format: organism-based
B16 [13] = experiment: Antitumor activity against mouse B16 cells allografted in BDF1 mouse assessed as tumor growth inhibition at 6.25 to 50 mg/kg administered as qd for 1 to 9 days relative to control; format: functional, organism-based
B16 [14] = experiment: Antitumor activity against mouse B16 cells allografted in BDF1 mouse assessed as tumor growth inhibition at 100 mg/kg administered as qd for 1 to 9 days relative to control; format: functional
[15] = tested on: Lewis lung carcinoma cell line; experiment: Antitumor activity against mouse LLC cells allografted in BDF1 mouse assessed as tumor growth inhibition; format: functional
B16 [16] = experiment: Antitumor activity against mouse B16 cells allografted in BDF1 mouse assessed as tumor growth inhibition at 25 mg/kg administered as qd for 1 to 9 days relative to control; format: functional
B16 [17] = experiment: Antitumor activity against mouse B16 cells allografted in BDF1 mouse assessed as tumor growth inhibition at 200 mg/kg administered as qd for 1 to 9 days relative to control; format: functional
B16 [18] = experiment: Antitumor activity against mouse B16 cells allografted in BDF1 mouse assessed as tumor growth inhibition at 400 mg/kg administered as qd for 1 to 9 days relative to control; format: functional
L1210 = experiment: Antitumor activity against mouse L1210 cells allografted in BDF1 mouse assessed as tumor growth inhibition at 200 mg/kg administered as qd for 1 to 9 days relative to control; format: functional
B16 [19] = experiment: Antitumor activity against mouse B16 cells allografted in BDF1 mouse assessed as tumor growth inhibition at 50 mg/kg administered as qd for 1 to 9 days relative to control; format: functional

Compound | T/C (P388 [1]) [%] | Activity (P388 [2]) | T/C (P388 [3]) [%] | T/C (P388 [4]) [%] | Activity (P388 [5]) | T/C (P388 [7]) [%] | Activity (P388 [8]) | other results
CCOC(=O)c1ccc(NC(=O)Nc2scc[n+]2C)cc1.COS(=O)(=O)[O-] | 90 | Active | 100 |  |  |  |  | 
O=C(CCl)Nc1nccs1 |  | Active | 116 | 103 | Active |  |  | 
N#Cc1ccc(NC(=O)Nc2nncs2)cc1 | 146 | Active | 140 | 131 | Active | 122 |  | Activity (P388 [6]): Active
Cc1ccc(S(=O)(=O)NC(=O)Nc2nccs2)cc1 | 99 | Active | 106 |  |  |  | Active | 
O=C(Nc1nncs1)C(F)(F)F |  |  |  | 161 | Active | 130 |  | Activity (P388 [9]): Active; T/C (P388 [10]): 110%
O=C(CCl)Nc1nncs1 | 100 | Active | 104 |  |  |  | Active | 
O=C(Nc1ccc([N+](=O)[O-])cc1)Nc1nccs1 |  |  |  | 142 | Active | 127 |  | Activity (P388 [6]): Active; Activity (P388 [9]): Active; T/C (P388 [10]): 112%
CCOC(=O)c1ccc(NC(=O)Nc2nc3ccccc3s2)cc1 | 90 |  |  |  |  |  | Active | T/C (P388 [11]): 90%; Activity (P388 [12]): Active
CCOC(=O)c1ccc(NC(=O)Nc2nncs2)cc1 |  | Active | 134 | 138 | Active | 132 |  | Activity (P388 [6]): Active; Activity (Mus musculus): Non-toxic; Activity (P388 [9]): Active; T/C (P388 [10]): 119%; TGI (B16 [13]): inactive
CCOC(=O)c1ccc(NC(=O)Nc2nccs2)cc1 | 162 | Active | 143 | 149 | Active | 145 |  | T/C (B16 [14]): 166%; Activity (P388 [6]): Active; TGI [15]: inactive; T/C (B16 [16]): 134%; T/C (B16 [17]): 167%; T/C (B16 [18]): 153%; T/C (L1210): 125%; T/C (B16 [19]): 147%
CCOC(=O)c1ccc(NC(=S)Nc2nccs2)cc1 | 92 | Active | 95 |  |  |  |  | T/C (P388 [11]): 92%
O=C(Nc1ccccc1)Nc1nccs1 | 93 | Active | 96 |  |  |  | Active | 
O=C(Nc1ccccc1)Nc1nncs1 |  |  |  |  |  | 104 |  | Activity (P388 [6]): Active; Activity (P388 [9]): Active; T/C (P388 [10]): 104%
O=C(Nc1ccc([N+](=O)[O-])cc1)Nc1nncs1 | 132 | Active | 124 |  |  |  |  | T/C (P388 [11]): 142%
N#Cc1ccc(NC(=O)Nc2nccs2)cc1 |  |  | 160 | 132 | Active | 124 |  | Activity (P388 [6]): Active
Cc1ccc(NC(=O)Nc2nccs2)cc1 | 105 | Active | 99 |  |  |  | Active | 
O=C(Nc1ccc(C(=O)O)cc1)Nc1nccs1 | 163 | Active | 150 | 143 | Active | 125 | Active | Activity (P388 [6]): Active
CCOC(=O)c1ccc(NC(=O)Nc2nc(C)cs2)cc1 | 138 | Active | 127 | 109 | Active |  | Active | 
O=C(Nc1ccc(Cl)cc1)Nc1nccs1 |  | Active | 118 | 111 | Active |  |  | 
CCOC(=O)c1ccc(NC(=O)Nc2nnn[nH]2)cc1 | 100 |  |  |  |  |  | Active | T/C (P388 [11]): 108%; Activity (P388 [12]): Active
CCOC(=O)Nc1nccs1 | 108 | Active | 102 |  |  |  | Active | 
O=C(Nc1nccs1)C(F)(F)F | 99 | Active | 104 |  |  |  |  | T/C (P388 [11]): 108%; Activity (P388 [12]): Active
CCOC(=O)c1ccc(NC(=O)Nc2nc3ccc(OC)cc3s2)cc1 | 89 |  |  |  |  |  | Active | T/C (P388 [11]): 89%; Activity (P388 [12]): Active
CCOC(=O)Nc1nncs1 | 151 | Active | 142 | 132 | Active | 108 | Active | Activity (P388 [6]): Active
CCOC(=O)c1ccc(NC(=O)NC2=NCCS2)cc1 | 87 |  |  |  |  |  | Active | T/C (P388 [11]): 92%; Activity (P388 [12]): Active
CCOC(=O)c1ccc(NC(=O)Nc2nnc(NC(=O)Nc3ccc(C(=O)OCC)cc3)[nH]2)cc1 |  | Active | 88 | 89 | Active |  |  | 
CNC(=O)Nc1nccs1 | 97 |  | 96 | 105 | Active |  | Active | 
